Assay results published in patent US20240132431A1, “METHOD FOR ALKYLATING ACIDIC FUNCTIONAL GROUP” (Chugai Seiyaku Kabushiki Kaisha, priority 2021, published 2024).

Biological target: T1, Bcl-2 protein (Recombinant Human Bcl-2 Protein) (Homo sapiens, UniProt P10415)
T1 construct: purchased Novus NBP2-34889
Experiment: Binding evaluation of mixture library compounds to Bcl-2 using AS-MS (affinity selection mass spectrometry)
Details: AS-MS, mixture library, Bcl-2, ASMS Ratio(%)=(A−C)/B×100; for ASMS ratio (%) n = 1: replicate n = 1; for ASMS ratio (%) n = 2: replicate n = 2
How it was run: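 Bcl-2 binding is scored from LC/MS signal retained with protein through gel-filtration spin columns, normalised to unfiltered and protein-free controls. Incubation: 20 μM protein, […] per compound, 1 h, 23° C.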

T1 sequence (P10415 whole entry): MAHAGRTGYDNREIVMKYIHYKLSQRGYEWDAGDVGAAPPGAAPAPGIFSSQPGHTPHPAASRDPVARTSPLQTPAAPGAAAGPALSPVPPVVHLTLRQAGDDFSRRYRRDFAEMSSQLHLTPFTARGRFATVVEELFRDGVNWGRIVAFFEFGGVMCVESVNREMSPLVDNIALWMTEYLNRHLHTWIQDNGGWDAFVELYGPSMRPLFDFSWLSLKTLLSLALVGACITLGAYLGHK

With `CCOc1cccc(C#Cc2cc(C(=O)N3CCN(c4ccc(C(=O)NS(=O)(=O)c5ccc(NCCSc6ccccc6)c([N+](=O)[O-])c5)nn4)CC3)cc(C(F)(F)F)c2)c1` [B2Q019-01, 6-[4-[3-[2-(3-Ethoxyphenyl)ethynyl]-5-(trifluoromethyl)benzoyl]piperazin-1-yl]-N-[3-nitro-4-(2-phenylsulfanylethylamino)phenyl]sulfonylpyridazine-3-carboxamide] the “ASMS ratio (%) n = 1” value was 0.7% and the “ASMS ratio (%) n = 2” value was 14.1%.

For `CCOc1cncc(C#Cc2cc(C(=O)N3CCN(c4ccc(C(=O)NS(=O)(=O)c5ccc(NCCSc6ccccc6)c([N+](=O)[O-])c5)nn4)CC3)cc(C(F)(F)F)c2)c1` [B2Q020-01, 6-[4-[3-[2-(5-Ethoxypyridin-3-yl)ethynyl]-5-(trifluoromethyl)benzoyl]piperazin-1-yl]-N-[3-nitro-4-(2-phenylsulfanylethylamino)phenyl]sulfonylpyridazine-3-carboxamide], the “ASMS ratio (%) n = 1” value was 6.1% and the “ASMS ratio (%) n = 2” value was 5.6%.

For `CCOc1cccc(-c2cnn(-c3cc(C(=O)N4CCN(c5ccc(C(=O)NS(=O)(=O)c6ccc(NCCSc7ccccc7)c([N+](=O)[O-])c6)nn5)CC4)cc(C(F)(F)F)c3)c2)c1` [B2Q021-01, 6-[4-[3-[4-(3-Ethoxyphenyl)pyrazol-1-yl]-5-(trifluoromethyl)benzoyl]piperazin-1-yl]-N-[3-nitro-4-(2-phenylsulfanylethylamino)phenyl]sulfonylpyridazine-3-carboxamide], the “ASMS ratio (%) n = 1” value was 0.0% and the “ASMS ratio (%) n = 2” value was 0.0%.

For `CCOc1cncc(-c2cnn(-c3cc(C(=O)N4CCN(c5ccc(C(=O)NS(=O)(=O)c6ccc(NCCSc7ccccc7)c([N+](=O)[O-])c6)nn5)CC4)cc(C(F)(F)F)c3)c2)c1` [B2Q022-01, 6-[4-[3-[4-(5-Ethoxypyridin-3-yl)pyrazol-1-yl]-5-(trifluoromethyl)benzoyl]piperazin-1-yl]-N-[3-nitro-4-(2-phenylsulfanylethylamino)phenyl]sulfonylpyridazine-3-carboxamide], the “ASMS ratio (%) n = 1” value was 13.8% and the “ASMS ratio (%) n = 2” value was 23.6%.

`CCOc1cccc(-c2csc(C(=O)N3CCN(c4ccc(C(=O)NS(=O)(=O)c5ccc(NCCSc6ccccc6)c([N+](=O)[O-])c5)cc4)CC3)c2)c1` [B2Q023-01, 4-[4-[4-(3-Ethoxyphenyl)thiophene-2-carbonyl]piperazin-1-yl]-N-[3-nitro-4-(2-phenylsulfanylethylamino)phenyl]sulfonylbenzamide] was tested, and the “ASMS ratio (%) n = 1” value was 0.0% and the “ASMS ratio (%) n = 2” value was 0.0%.

For `CCOc1cncc(-c2csc(C(=O)N3CCN(c4ccc(C(=O)NS(=O)(=O)c5ccc(NCCSc6ccccc6)c([N+](=O)[O-])c5)cc4)CC3)c2)c1` [B2Q024-01, 4-[4-[4-(5-Ethoxypyridin-3-yl)thiophene-2-carbonyl]piperazin-1-yl]-N-[3-nitro-4-(2-phenylsulfanylethylamino)phenyl]sulfonylbenzamide], the “ASMS ratio (%) n = 1” value was 4.5% and the “ASMS ratio (%) n = 2” value was 7.5%.

For `CCOc1cccc(-c2ccc(C(=O)N3CCN(c4ccc(C(=O)NS(=O)(=O)c5ccc(NCCSc6ccccc6)c([N+](=O)[O-])c5)cc4)CC3)cc2C)c1` [B2Q025-01, 4-[4-[4-(3-Ethoxyphenyl)-3-methylbenzoyl]piperazin-1-yl]-N-[3-nitro-4-(2-phenylsulfanylethylamino)phenyl]sulfonylbenzamide], the “ASMS ratio (%) n = 1” value was −5.7% and the “ASMS ratio (%) n = 2” value was 0.0%.

`CCOc1cncc(-c2ccc(C(=O)N3CCN(c4ccc(C(=O)NS(=O)(=O)c5ccc(NCCSc6ccccc6)c([N+](=O)[O-])c5)cc4)CC3)cc2C)c1` [B2Q026-01, 4-[4-[4-(5-Ethoxypyridin-3-yl)-3-methylbenzoyl]piperazin-1-yl]-N-[3-nitro-4-(2-phenylsulfanylethylamino)phenyl]sulfonylbenzamide] was tested, and the “ASMS ratio (%) n = 1” value was 4.4% and the “ASMS ratio (%) n = 2” value was 0.4%.

For `CCOc1cccc(-c2ccc(C(=O)N3CCN(c4ccc(C(=O)NS(=O)(=O)c5ccc(NCCSc6ccccc6)c([N+](=O)[O-])c5)cc4)CC3)cc2F)c1` [B2Q027-01, 4-[4-[4-(3-Ethoxyphenyl)-3-fluorobenzoyl]piperazin-1-yl]-N-[3-nitro-4-(2-phenylsulfanylethylamino)phenyl]sulfonylbenzamide], the “ASMS ratio (%) n = 1” value was 0.2% and the “ASMS ratio (%) n = 2” value was −2.5%.

For `CCOc1cncc(-c2ccc(C(=O)N3CCN(c4ccc(C(=O)NS(=O)(=O)c5ccc(NCCSc6ccccc6)c([N+](=O)[O-])c5)cc4)CC3)cc2F)c1` [B2Q028-01, 4-[4-[4-(5-Ethoxypyridin-3-yl)-3-fluorobenzoyl]piperazin-1-yl]-N-[3-nitro-4-(2-phenylsulfanylethylamino)phenyl]sulfonylbenzamide], the “ASMS ratio (%) n = 1” value was 0.0% and the “ASMS ratio (%) n = 2” value was −3.7%.

In the case of `CCOc1cncc(C#Cc2ccccc2C(=O)N2CCN(c3ccc(C(=O)NS(=O)(=O)c4ccc(NCCSc5ccccc5)c([N+](=O)[O-])c4)cc3)CC2)c1` [B2Q030-01, 4-[4-[2-[2-(5-Ethoxypyridin-3-yl)ethynyl]benzoyl]piperazin-1-yl]-N-[3-nitro-4-(2-phenylsulfanylethylamino)phenyl]sulfonylbenzamide], the “ASMS ratio (%) n = 1” value is reported as 6.6% and the “ASMS ratio (%) n = 2” value is reported as −4.1%.

In the case of `CCOc1cccc(C#Cc2cncc(C(=O)N3CCN(c4ccc(C(=O)NS(=O)(=O)c5ccc(NCCSc6ccccc6)c([N+](=O)[O-])c5)cc4)CC3)c2)c1` [B2Q031-01, 4-[4-[5-[2-(3-Ethoxyphenyl)ethynyl]pyridine-3-carbonyl]piperazin-1-yl]-N-[3-nitro-4-(2-phenylsulfanylethylamino)phenyl]sulfonylbenzamide], the “ASMS ratio (%) n = 1” value is reported as 6.6% and the “ASMS ratio (%) n = 2” value is reported as −4.1%.

In the case of `CCOc1cncc(C#Cc2cncc(C(=O)N3CCN(c4ccc(C(=O)NS(=O)(=O)c5ccc(NCCSc6ccccc6)c([N+](=O)[O-])c5)cc4)CC3)c2)c1` [B2Q032-01, 4-[4-[5-[2-(5-Ethoxypyridin-3-yl)ethynyl]pyridine-3-carbonyl]piperazin-1-yl]-N-[3-nitro-4-(2-phenylsulfanylethylamino)phenyl]sulfonylbenzamide], the “ASMS ratio (%) n = 1” value is reported as −0.2% and the “ASMS ratio (%) n = 2” value is reported as −374.2%.

In the case of `CCOc1cccc(-c2ccccc2CCC(=O)N2CCN(c3ccc(C(=O)NS(=O)(=O)c4ccc(NCCSc5ccccc5)c([N+](=O)[O-])c4)cc3)CC2)c1` [B2Q033-01, 4-[4-[3-[2-(3-Ethoxyphenyl)phenyl]propanoyl]piperazin-1-yl]-N-[3-nitro-4-(2-phenylsulfanylethylamino)phenyl]sulfonylbenzamide], the “ASMS ratio (%) n = 1” value is reported as 4.2% and the “ASMS ratio (%) n = 2” value is reported as −2.3%.

For `CCOc1cncc(-c2ccccc2CCC(=O)N2CCN(c3ccc(C(=O)NS(=O)(=O)c4ccc(NCCSc5ccccc5)c([N+](=O)[O-])c4)cc3)CC2)c1` [B2Q034-01, 4-[4-[3-[2-(5-Ethoxypyridin-3-yl)phenyl]propanoyl]piperazin-1-yl]-N-[3-nitro-4-(2-phenylsulfanylethylamino)phenyl]sulfonylbenzamide], the “ASMS ratio (%) n = 1” value was 0.0% and the “ASMS ratio (%) n = 2” value was 0.0%.

For `CCOc1cccc(-c2ccc(C(=O)N3CCN(c4ccc(C(=O)NS(=O)(=O)c5ccc(NCCSc6ccccc6)c([N+](=O)[O-])c5)cc4)CC3)c3ccccc23)c1` [B2Q035-01, 4-[4-[4-(3-Ethoxyphenyl)naphthalene-1-carbonyl]piperazin-1-yl]-N-[3-nitro-4-(2-phenylsulfanylethylamino)phenyl]sulfonylbenzamide], the “ASMS ratio (%) n = 1” value was 9.9% and the “ASMS ratio (%) n = 2” value was −13.7%.

For `CCOc1cncc(-c2ccc(C(=O)N3CCN(c4ccc(C(=O)NS(=O)(=O)c5ccc(NCCSc6ccccc6)c([N+](=O)[O-])c5)cc4)CC3)c3ccccc23)c1` [B2Q036-01, 4-[4-[4-(5-Ethoxypyridin-3-yl)naphthalene-1-carbonyl]piperazin-1-yl]-N-[3-nitro-4-(2-phenylsulfanylethylamino)phenyl]sulfonylbenzamide], the “ASMS ratio (%) n = 1” value was 0.0% and the “ASMS ratio (%) n = 2” value was −6.0%.

In the case of `CCOc1cccc(-c2cc(C(=O)N3CCN(c4ccc(C(=O)NS(=O)(=O)c5ccc(NCCSc6ccccc6)c([N+](=O)[O-])c5)cc4)CC3)cc(C(C)(C)C)c2)c1` [B2Q037-01, 4-[4-[3-tert-Butyl-5-(3-ethoxyphenyl)benzoyl]piperazin-1-yl]-N-[3-nitro-4-(2-phenylsulfanylethylamino)phenyl]sulfonylbenzamide], the “ASMS ratio (%) n = 1” value is reported as 10.9% and the “ASMS ratio (%) n = 2” value is reported as −1.5%.

For `CCOc1cncc(-c2cc(C(=O)N3CCN(c4ccc(C(=O)NS(=O)(=O)c5ccc(NCCSc6ccccc6)c([N+](=O)[O-])c5)cc4)CC3)cc(C(C)(C)C)c2)c1` [B2Q038-01, 4-[4-[3-tert-Butyl-5-(5-ethoxypyridin-3-yl)benzoyl]piperazin-1-yl]-N-[3-nitro-4-(2-phenylsulfanylethylamino)phenyl]sulfonylbenzamide], the “ASMS ratio (%) n = 1” value was 3.3% and the “ASMS ratio (%) n = 2” value was 0.4%.

In the case of `CCOc1cccc(-c2cc(C(=O)N3CCN(c4ccc(C(=O)NS(=O)(=O)c5ccc(NCCSc6ccccc6)c([N+](=O)[O-])c5)cc4)CC3)cc(C(F)(F)F)c2)c1` [B2Q039-01, 4-[4-[3-(3-Ethoxyphenyl)-5-(trifluoromethyl)benzoyl]piperazin-1-yl]-N-[3-nitro-4-(2-phenylsulfanylethylamino)phenyl]sulfonylbenzamide], the “ASMS ratio (%) n = 1” value is reported as 7.2% and the “ASMS ratio (%) n = 2” value is reported as 4.6%.

`CCOc1cccc(C#Cc2cc(C(=O)N3CCN(c4ccc(C(=O)NS(=O)(=O)c5ccc(NCCSc6ccccc6)c([N+](=O)[O-])c5)cc4)CC3)cc(C(F)(F)F)c2)c1` [B2Q041-01, 4-[4-[3-[2-(3-Ethoxyphenyl)ethynyl]-5-(trifluoromethyl)benzoyl]piperazin-1-yl]-N-[3-nitro-4-(2-phenylsulfanylethylamino)phenyl]sulfonylbenzamide] was tested, and the “ASMS ratio (%) n = 1” value was 2.6% and the “ASMS ratio (%) n = 2” value was 0.2%.
